Assay results published in paper PMC5270753, “Novel thermostable antibiotic resistance enzymes from the Atlantis II Deep Red Sea brine pool” (Microbial Biotechnology, 2016).

Legend:
[1] = system: T1, ATII-APH(3′); assay: pyruvate kinase/lactate dehydrogenase coupled assay, NADH oxidation at […] nm; format: biochemical; settings: phosphorylation of aminoglycoside; Michaelis-Menten fit
T1 construct: full-length ORF (804 nt query), codon-optimised synthetic gene, N-terminal 10x-His tag (pET-16b), E. coli BL21(DE3), Talon-purified

[2] = system: T2, ATII-ABL; assay: chromogenic nitrocefin hydrolysis at […] nm; format: biochemical, uncultured bacterium; settings: 100 nM enzyme; Michaelis-Menten fit
T2 construct: gene bla

| Structure (SMILES) | Km [1] | Km [2] |
| --- | --- | --- |
| NCC[C@H](O)C(=O)N[C@@H]1C[C@H](N)[C@@H](O[C@H]2O[C@H](CN)[C@@H](O)[C@H](O)[C@H]2O)[C@H](O)[C@H]1O[C@H]1O[C@H](CO)[C@@H](O)[C@H](N)[C@H]1O [Amikacin] | 5500 ± 1650 µM | – |
| NC[C@H]1O[C@H](O[C@H]2[C@H](O)[C@@H](O[C@H]3O[C@H](CO)[C@@H](O)[C@H](N)[C@H]3O)[C@H](N)C[C@@H]2N)[C@H](O)[C@@H](O)[C@@H]1O [Kanamycin] | 4.7 ± 0.96 µM | – |
| O=C(Cc1cccs1)N[C@@H]1C(=O)N2C(C(=O)O)=C(/C=C/c3ccc([N+](=O)[O-])cc3[N+](=O)[O-])CS[C@H]12 [Nitrocefin] | – | 5.07 ± 1.65 µM |
